Results filed as inconclusive are left out. Active and inactive are the calls of the source.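 The calls were made as follows: active = luciferase signal rise whose fitted curve crosses a set activity limit at or below the top valid tested dose; inconclusive = flat fit with 30 to 70% rise, or poor fit; inactive = signal falling, flat within 30%, or crossing above top dose.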
Tested on: D54 LucT luciferase reporter counterscreen, luminescence, 24 h
Test: luciferase activators in glycosylation-insensitive reporter cells, dose response, counter-screen for N-linked glycosylation inhibitor project, D54 LucT cells, luminescence, cherry pick (AID 624404)

In order of rising AC35:
1. O=C1Nc2ccccc2/C1=C/c1cnc[nH]1  7.09 nM
2. C=CCOc1ccc(/C=C2\SC(N3CCCCC3)=NC2=O)cc1  8.9 nM
3. COc1ccc(Cl)cc1/C=C/c1ccc2cccc(O)c2n1  22.1 nM
4. Cc1nnc2n(c1=O)N=C(c1ccc(Cl)cc1)CS2  33.5 nM
5. Cc1ccc(S(=O)(=O)[N-]c2nc3ccccc3nc2-n2cc[n+](Cc3ccccc3)c2)cc1  33.9 nM
6. COc1ccc(/C(C)=N/NC(=O)c2ccccc2OCc2ccccc2)c(OC)c1  56 nM
7. COc1ccc2c(c1)C(=O)N1[C@H]3c4cc(OC)ccc4OC[C@@H]3[C@H](c3ccccc3)[C@]1(C)C(=O)N2  99.7 nM
8. N#Cc1c(NC(=O)/C=C/c2ccco2)sc2c1CCCC2  115 nM
9. CCOC(=O)Nc1nc2ccc(Cn3cccc3)cc2[nH]1  115 nM
10. CCc1nn2c(NCCCO)cc(C)nc2c1-c1ccc(F)cc1  184 nM
11. O=C(/C=C/c1ccco1)Nc1nnc(-c2ccco2)s1  204 nM
12. CCc1ccc(CNC(=O)Cc2ccc(NC(=O)C3=C(C)OCCS3)cc2)cc1  320 nM
13. COc1ccc(C(=O)Nc2sc(C)c(C)c2CN2CC(C)OC(C)C2)cc1 (centres undefined)  352 nM
14. COc1ccc2c(c1)[C@H]1[C@H](CO2)[C@H](c2ccccc2)[C@]2(C)C(=O)Nc3ccccc3C(=O)N12  353 nM
15. Cc1cc(=O)oc2cc(NC(=O)c3cccc(S(C)(=O)=O)c3)ccc12  526 nM
16. CSc1ncnc2c1ncn2CCCN[C@H](C)c1cccc2ccccc12  527 nM
17. Cn1c(=O)[nH]c(=O)c2c1nc(N(CCO)Cc1ccccc1)n2CCCc1ccccc1  547 nM
18. Cc1ccc(-c2nn3c(C)nnc3c3ccccc23)cc1S(=O)(=O)N(C)CCO  599 nM
19. Cc1ccc2c(c1)C(=O)N1[C@H]3c4cc(Cl)ccc4OC[C@@H]3[C@H](c3ccccc3)[C@]1(C)C(=O)N2  650 nM
20. COc1ccc(CCn2c(O)c(C=NCc3ccc4c(c3)OCO4)c(=O)[nH]c2=O)cc1OC  678 nM
21. O=C(Nc1ncccc1O)c1ccc(C(=O)c2ccccc2)cc1  773 nM
22. CCOC(=O)c1c(C)[nH]c(-c2csc(N)n2)c1C  787 nM
23. Cc1ccc(N2CCN(C3=NC(=O)/C(=C\c4cn[nH]c4-c4ccccc4)S3)CC2)cc1  793 nM
24. CCN1C(=O)c2cccc3c(S(=O)(=O)Nc4ccccc4OC)ccc1c23  896 nM
25. NC(=O)CC(NC(=O)Cc1ccc(Br)cc1)c1ccc(NC2CCN(Cc3ccccc3)CC2)c([N+](=O)[O-])c1 (centres undefined)  983 nM
26. CCc1ccc(C2c3[nH]c4ccccc4c3CCN2C(=O)c2ccc(=O)n(C)n2)cc1 (centres undefined)  1240 nM
27. CC(C)c1c(C(=O)Nc2ccccc2)c(-c2ccccc2)c(-c2ccc(F)cc2)n1CC[C@@H](O)C[C@@H](O)CC(=O)O  1260 nM
28. CC(C)(C)c1ccc(OCc2ccc(C(=O)N3CCOCC3)o2)cc1  1460 nM
29. CC(=O)N1CCc2c(sc(NC(=O)c3ccc4c(c3)OCCO4)c2C#N)C1  1520 nM
30. Cc1cc(=O)oc2cc(OCC3CC(c4ccccc4)=NO3)ccc12 (centres undefined)  1540 nM
31. COc1cc(N=Nc2cccc(S(N)(=O)=O)c2)c2ccccc2c1N  1660 nM
32. Cc1ccc(NC(=O)C(Cc2ccccc2)N2C(=O)C3C4CCC(C4)C3C2=O)cc1Cl (centres undefined)  1680 nM
33. CC(C)(C)S(=O)N1Cc2cc(C(=O)NCC(F)(F)F)nc(-c3cccc(-c4cccc(F)c4)c3)c2[C@@H]1CCO (some centres undefined)  1780 nM
34. COc1ccc(C(=O)CSc2nnc(-c3cc4ccccc4cc3O)n2Cc2ccco2)cc1  1800 nM
35. CCOC(=O)c1[nH]c(C)c(C(=O)Nc2cc(Cl)ccc2C)c1C  2240 nM
36. Cc1ccc2[nH]c(=O)c3cc(C(=O)NC(C)C)sc3c2c1  2390 nM
37. c1ccc(CNc2nc(-c3ccccc3)nc3ccccc23)cc1  3010 nM
38. CCOC(=O)c1c(C)c(C(=O)Nc2cc(F)ccc2F)c(C)n1C  3020 nM
39. COc1cc(/C=C2\SC(=S)N(CCC(=O)N3CCCCC3)C2=O)cc(OC)c1OC  3440 nM
40. CC(Nc1nc(-c2cccnc2)nc2ccccc12)c1ccc(F)cc1 (centres undefined)  3450 nM
41. O=C(NCCCN1CCOCC1)c1cc(-c2cccs2)on1  3630 nM
42. COc1cccc(C2=NOC(C(=O)NCc3ccc(F)cc3)C2)c1 (centres undefined)  4170 nM
43. Cc1ccc(-c2nc(NCCN(C)C)c3ccccc3n2)cc1  4450 nM
44. O=C(C=Cc1cccc(O)c1)c1ccccc1O  4500 nM
45. COc1cc(/C=N/NC(=O)c2ccc(-c3ccccc3)cc2)cc(OC)c1OC  4600 nM
46. COc1cccc(NC(=O)CCCOc2cc(=O)n(C)c3ccccc23)c1  4630 nM
47. O=C(NCCN1C(=O)S/C(=C\c2ccccc2Cl)C1=O)C1=COCCO1  4980 nM
48. CCOC(=O)c1c(NC(=O)c2cc3n(n2)C(C(F)(F)F)CC(c2cccs2)N3)sc(C)c1C (centres undefined)  5360 nM
49. Cc1cc(C)c2c(N)c3cccc(C)c3nc2n1  5820 nM
50. Cc1ccc(C)n1-c1cccc(NC(=O)c2ccccc2)c1  7120 nM
51. COc1cc(NC(=O)CN2c3cccc4cccc(c34)S2(=O)=O)cc(OC)c1OC  7530 nM
52. Cc1cccn2c(=O)c3cc(C(=O)NC4CCCCC4)n(C)c3nc12  7540 nM
53. Cc1ccc(C(=O)NC(=C(Cl)Cl)S(=O)(=O)c2ccc(Cl)cc2)cc1  12700 nM

In the case of COc1ccc(/C=C/C(=O)c2ccccc2)cc1COc1ccccc1F, the AC35 is reported as > 19500 nM (inactive).

Reference: PubChem BioAssay AID624404 (Broad Institute, 2012)
